Source: US7704995B2 (Exelixis, Inc., priority 2003, dated 2010)
Like-named read-outs stand apart in the source and are kept apart here. Blank lines part the entries; values can stand above or below the compound they belong to.

Molecular target: T1, Chk1 (Homo sapiens, UniProt O14757)
T1 construct: purchased Upstate Biotechnology
T1 sequence (O14757 1-476): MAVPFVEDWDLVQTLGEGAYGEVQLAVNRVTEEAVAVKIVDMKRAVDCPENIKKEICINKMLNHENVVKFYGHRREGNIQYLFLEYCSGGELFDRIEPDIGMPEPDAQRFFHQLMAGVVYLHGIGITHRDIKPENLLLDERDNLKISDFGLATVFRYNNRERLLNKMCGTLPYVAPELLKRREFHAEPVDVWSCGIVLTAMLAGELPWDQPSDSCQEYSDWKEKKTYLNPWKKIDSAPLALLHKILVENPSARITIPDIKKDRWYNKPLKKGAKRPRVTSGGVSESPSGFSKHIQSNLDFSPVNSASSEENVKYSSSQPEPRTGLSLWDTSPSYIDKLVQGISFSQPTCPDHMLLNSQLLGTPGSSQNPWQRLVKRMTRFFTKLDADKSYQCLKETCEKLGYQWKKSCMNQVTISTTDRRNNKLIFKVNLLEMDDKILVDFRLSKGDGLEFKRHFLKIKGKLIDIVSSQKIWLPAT
Experiment: Chk1 kinase assay: incorporation of γ-33P ATP into immobilized myelin basic protein
Format: biochemical
Details: read-out: Chk1 IC50
In short: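 Chk1 (10 nM) or Chk2 (20 nM) phosphorylated plate-immobilized myelin basic protein for 1 h at room temperature in Hepes pH 7.6 buffer with MgCl2, DTT, 1% DMSO, γ-33P ATP plus 10 μM (Chk1) or 30 μM (Chk2) unlabeled ATP. Bound radioactivity counted by scintillation; IC50 determined, Ki derivable from IC50.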

[1] = Table 11, Chk1 only, class symbols A-D

- IC50 [1]: < 50 nM
Compound: Nc1ncc(-c2cccc(NC(=O)Cc3cc(F)ccc3F)c2)nc1C(=O)N[C@H]1CCCNC1 [Example 982, 3-amino-6-(3-{[(2,5-difluorophenyl)acetyl]amino}phenyl)-N-[(3S)-piperidin-3-yl]pyrazine-2-carboxamide]

- IC50 [1]: < 50 nM
Compound: Nc1ncc(-c2cccc(C(=O)NCc3ccccc3-c3ccccc3)c2)nc1C(=O)N[C@H]1CCCNC1 [Example 847, 3-amino-6-(3-{[(biphenyl-2-ylmethyl)amino]carbonyl}phenyl)-N-[(3S)-piperidin-3-yl]pyrazine-2-carboxamide]

- IC50: 50 to 1000 nM
Compound: CNC(=O)c1nc(-c2cccc(OCCc3ccccc3)c2)cnc1N [Example 174, 3-amino-N-methyl-6-{3-[(2-phenylethyl)oxy]phenyl}pyrazine-2-carboxamide]

- IC50: 1000 to 10000 nM
Compound: CNC(=O)c1nc(-c2cccc(-c3noc(Cc4ccccc4)n3)c2)cnc1N [Example 137, 3-amino-N-methyl-6-{3-[5-(phenylmethyl)-1,2,4-oxadiazol-3-yl]phenyl}pyrazine-2-carboxamide]

- IC50 (Table 11, Chk1 only): 50 to 1000 nM
Compound: CNC(=O)c1nc(-c2cccc(Cn3ccnc3)c2)cnc1N [Example 504, 3-amino-6-[3-(1H-imidazol-1-ylmethyl)phenyl]-N-methylpyrazine-2-carboxamide]

- IC50 [1]: 1000 to 10000 nM
Compound: Nc1ncc(-c2cccc(C(=O)N[C@H]3CCc4ccccc43)c2)nc1-c1ncn(-c2ccncc2)n1 [Example 813, 3-[5-amino-6-(1-pyridin-4-yl-1H-1,2,4-triazol-3-yl)pyrazin-2-yl]-N-[(1S)-2,3-dihydro-1H-inden-1-yl]benzamide]

- IC50: 1000 to 10000 nM
Compound: CNC(=O)c1nc(-c2cccc(C(=O)NC3CCCC3)c2)cnc1N [Example 220, 3-amino-6-{3-[(cyclopentylamino)carbonyl]phenyl}-N-methylpyrazine-2-carboxamide]

- IC50 (Table 11, Chk1 only): ≥ 10000 nM
Compound: CC(C)(C)OC(=O)N1CCC[C@@H]1CN1CC[C@H](NC(=O)c2nc(-c3cccc(C(=O)NCc4ccccc4)c3)cnc2N)C1 [Example 688, 1,1-dimethylethyl (2R)-2-{[(3S)-3-({[3-amino-6-(3-{[(phenylmethyl)amino]carbonyl}phenyl)pyrazin-2-yl]carbonyl}amino)pyrrolidin-1-yl]methyl}pyrrolidine-1-carboxylate]

- IC50: 50 to 1000 nM
Compound: CNC(=O)c1nc(-c2cccc(C(=O)NCc3ccccc3OCCN3CCOCC3)c2)cnc1N [Example 373, 3-amino-N-methyl-6-(3-{[({2-[(2-morpholin-4-ylethyl)oxy]phenyl}methyl)amino]carbonyl}phenyl)pyrazine-2-carboxamide]

- IC50 [1]: < 50 nM
Compound: Cc1cc(Br)cc(NC(=O)NCc2cccc(-c3cnc(N)c(C(=O)N[C@H]4CCCNC4)n3)c2)c1 [Example 921, 3-amino-6-{3-[({[(3-bromo-5-methylphenyl)amino]carbonyl}amino)methyl]phenyl}-N-[(3S)-piperidin-3-yl]pyrazine-2-carboxamide]

- IC50 [1]: 50 to 1000 nM
Compound: Nc1ncc(-c2cccc(CNS(=O)(=O)c3ccc4cccnc4c3)c2)nc1C(=O)N[C@H]1CCCNC1 [Example 907, 3-amino-N-[(3S)-piperidin-3-yl]-6-(3-{[(quinolin-7-ylsulfonyl)amino]methyl}phenyl)pyrazine-2-carboxamide]

- IC50 (Table 11, Chk1 only): 50 to 1000 nM
Compound: Nc1ncc(-c2cccc(C(=O)NCCc3ccccc3)c2)nc1C(=O)N[C@H]1CCNC1 [Example 715, 3-amino-6-(3-{[(2-phenylethyl)amino]carbonyl}phenyl)-N-[(3S)-pyrrolidin-3-yl]pyrazine-2-carboxamide]

- IC50: 50 to 1000 nM
Compound: CNC(=O)c1nc(-c2cccc(C(=O)NCc3ccccc3Br)c2)cnc1N [Example 305, 3-amino-6-[3-({[(2-bromophenyl)methyl]amino}carbonyl)phenyl]-N-methylpyrazine-2-carboxamide]

- IC50 [1]: < 50 nM
Compound: Nc1ncc(-c2cccc(C(=O)NCc3ccc(Br)cc3)c2)nc1C(=O)N[C@H]1CCCNC1 [Example 870, 3-amino-6-[3-({[(4-bromophenyl)methyl]amino}carbonyl)phenyl]-N-[(3S)-piperidin-3-yl]pyrazine-2-carboxamide]

- IC50: 1000 to 10000 nM
Compound: CNC(=O)c1nc(-c2cccc(OCCN3CCC(C)CC3)c2)cnc1N [Example 175, 3-amino-N-methyl-6-(3-{[2-(4-methylpiperidin-1-yl)ethyl]oxy}phenyl)pyrazine-2-carboxamide]

- IC50 [1]: < 50 nM
Compound: Nc1ncc(-c2cccc(C(=O)NCc3ccc4c(c3)OCCO4)c2)nc1C(=O)N[C@H]1CCCNC1 [Example 860, 3-amino-6-(3-{[(2,3-dihydro-1,4-benzodioxin-6-ylmethyl)amino]carbonyl}phenyl)-N-[(3S)-piperidin-3-yl]pyrazine-2-carboxamide]

- IC50: 50 to 1000 nM
Compound: CNC(=O)c1nc(-c2cccc(C(=O)NCC3CCN(C(=O)OC(C)(C)C)CC3)c2)cnc1N [Example 134, 1,1-dimethylethyl 4-({[(3-{5-amino-6-[(methylamino)carbonyl]pyrazin-2-yl}phenyl)carbonyl]amino}methyl)piperidine-1-carboxylate]

- IC50 (Table 11, Chk1 only): 50 to 1000 nM
Compound: CCNC(=O)c1nc(-c2cccc(CN[C@H]3CCc4ccccc43)c2)cnc1N [Example 488, 3-amino-6-(3-{[(1S)-2,3-dihydro-1H-inden-1-ylamino]methyl}phenyl)-N-ethylpyrazine-2-carboxamide]

- IC50 (Table 11, Chk1 only): < 50 nM
Compound: CNC(=O)c1nc(-c2cccc(CNC3CCc4cc(-c5ccoc5)ccc43)c2)cnc1N (stereo not shown) [Example 480, 3-amino-6-(3-{[(5-furan-3-yl-2,3-dihydro-1H-inden-1-yl)amino]methyl}phenyl)-N-methylpyrazine-2-carboxamide]

- IC50: 50 to 1000 nM
Compound: CNC(=O)c1nc(-c2cccc(NC(=O)Nc3ccc(F)cc3)c2)cnc1N [Example 89, 3-amino-6-[3-({[(4-fluorophenyl)amino]carbonyl}amino)phenyl]-N-methylpyrazine-2-carboxamide]

- IC50: 50 to 1000 nM
Compound: CNC(=O)c1nc(-c2cccc(C(=O)NCc3ccc(C)c(Cl)c3)c2)cnc1N [Example 303, 3-amino-6-[3-({[(3-chloro-4-methylphenyl)methyl]amino}carbonyl)phenyl]-N-methylpyrazine-2-carboxamide]

- IC50 (Table 11, Chk1 only): 1000 to 10000 nM
Compound: Nc1ncc(-c2cccc(C(=O)NCc3ccccc3)c2)nc1C(=O)NCCNC(=O)c1cccnc1Cl [Example 664, 3-amino-N-(2-{[(2-chloropyridin-3-yl)carbonyl]amino}ethyl)-6-(3-{[(phenylmethyl)amino]carbonyl}phenyl)pyrazine-2-carboxamide]

- IC50: 50 to 1000 nM
Compound: CNC(=O)c1nc(-c2cccc(C(=O)N[C@@H]3CCN(Cc4cccc(OC)c4)C3)c2)cnc1NCc1cccc(OC)c1 [Example 361, N-methyl-3-({[3-(methyloxy)phenyl]methyl}amino)-6-(3-{[((3R)-1-{[3-(methyloxy)phenyl]methyl}pyrrolidin-3-yl)amino]carbonyl}phenyl)pyrazine-2-carboxamide]

- IC50 [1]: < 50 nM
Compound: Nc1ncc(-c2cccc(C(=O)NCCc3ccccc3)c2)nc1C(=O)N[C@H]1CCCNC1 [Example 878, 3-amino-6-(3-{[(2-phenylethyl)amino]carbonyl}phenyl)-N-[(3S)-piperidin-3-yl]pyrazine-2-carboxamide]

- IC50: ≥ 10000 nM
Compound: CNC(=O)c1nc(-c2noc(Cc3ccccc3)n2)cnc1N [Example 70, 3-amino-N-methyl-6-[5-(phenylmethyl)-1,2,4-oxadiazol-3-yl]pyrazine-2-carboxamide]

- IC50: 50 to 1000 nM
Compound: CNC(=O)c1nc(-c2cccc(C(=O)NCc3cccc(O)c3)c2)cnc1N [Example 326, 3-amino-6-[3-({[(3-hydroxyphenyl)methyl]amino}carbonyl)phenyl]-N-methylpyrazine-2-carboxamide]

- IC50 (Table 11, Chk1 only): ≥ 10000 nM
Compound: C[C@@H](NC(=O)c1cccc(-c2cnc(N)c(C(=O)N[C@H]3CCN(C(=O)OC(C)(C)C)C3)n2)c1)c1ccccc1 [Example 710, 1,1-dimethylethyl (3S)-3-[({3-amino-6-[3-({[(1R)-1-phenylethyl]amino}carbonyl)phenyl]pyrazin-2-yl}carbonyl)amino]pyrrolidine-1-carboxylate]

- IC50 [1]: < 50 nM
Compound: Nc1ncc(-c2cccc(NC(=O)c3ccc(-c4cc(C(F)(F)F)ccc4Cl)o3)c2)nc1C(=O)N[C@H]1CCCNC1 [Example 899, 3-amino-6-{3-[({5-[2-chloro-5-(trifluoromethyl)phenyl]furan-2-yl}carbonyl)amino]phenyl}-N-[(3S)-piperidin-3-yl]pyrazine-2-carboxamide]

- IC50 (Table 11, Chk1 only): < 50 nM
Compound: Nc1ncc(-c2cccc(C(=O)N[C@@H]3c4ccccc4C[C@@H]3O)c2)nc1C(=O)N[C@H]1CCNC1 [Example 726, 3-amino-6-[3-({[(1R,2S)-2-hydroxy-2,3-dihydro-1H-inden-1-yl]amino}carbonyl)phenyl]-N-[(3S)-pyrrolidin-3-yl]pyrazine-2-carboxamide]

- IC50: 50 to 1000 nM
Compound: CNC(=O)c1nc(-c2cccc(C(=O)NCCc3ccccc3OC)c2)cnc1N [Example 130, 3-amino-N-methyl-6-{3-[({2-[2-(methyloxy)phenyl]ethyl}amino)carbonyl]phenyl}pyrazine-2-carboxamide]

- IC50 (Table 11, Chk1 only): 1000 to 10000 nM
Compound: Nc1ncc(-c2cccc(C(=O)NCc3ccccc3)c2)nc1C(=O)NCCCNS(=O)(=O)c1ccccn1 [Example 654, 3-amino-6-(3-{[(phenylmethyl)amino]carbonyl}phenyl)-N-{3-[(pyridin-2-ylsulfonyl)amino]propyl}pyrazine-2-carboxamide]
